Data taken from patent US20080070954A1, “Acylurea Connected And Sulfonylurea Connected Hydroxamates” (S*BIO PTE LTD., priority 2003, published 2008).
pIC50: −log10 of the molar value.

Legend:
[1] = molecular target: T1, HDAC8 enzyme (recombinant GST-HDAC8) (Homo sapiens, UniProt Q9BY41); assay: In vitro HDAC assay for determination of IC50 values (BIOMOL fluorescent-based), HDAC8; type: biochemical; settings: 500 nM HDAC8 enzyme, 200 μM Flur de lys p53 peptide substrate, 2 h room temperature
T1 construct: Amplification of human HDAC1 and HDAC8 coding region from this cDNA library; made in house; host or cells: SF9 insect cells (baculovirus, pFASTBAC vector)
T1 sequence (Q9BY41 1-377): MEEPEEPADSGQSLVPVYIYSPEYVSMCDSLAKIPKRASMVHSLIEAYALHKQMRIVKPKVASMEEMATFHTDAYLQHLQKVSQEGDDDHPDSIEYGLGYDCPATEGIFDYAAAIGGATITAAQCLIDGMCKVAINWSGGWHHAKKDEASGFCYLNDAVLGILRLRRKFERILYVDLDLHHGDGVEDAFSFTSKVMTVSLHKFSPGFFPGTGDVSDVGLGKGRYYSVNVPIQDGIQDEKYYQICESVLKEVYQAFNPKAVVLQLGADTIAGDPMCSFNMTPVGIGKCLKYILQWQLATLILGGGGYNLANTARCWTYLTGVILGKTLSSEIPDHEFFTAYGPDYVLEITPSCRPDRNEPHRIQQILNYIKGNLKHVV
Description: Human cDNA library was prepared using cultured SW620 cells. Amplification of human HDAC1 and HDAC8 coding region from this cDNA library was cloned separately into the baculovirus expression pDEST20 vector and pFASTBAC vector respectively (GATEWAY Cloning Technology, Invitrogen Pte Ltd). […] Recombinant baculovirus was prepared using the Bac-To-Bac method following the manufacturer's instruction (Invitrogen Pte Ltd).
(§1) Expression of GST-HDAC1 or HTGST-HDAC8 was done by infecting SF9 cells (Invitrogen Pte Ltd) with pDEST20-HDAC1 or pFASTBAC-GST-HDAC8 baculovirus at MOI=1 for 48 h. Soluble cell lysate was incubated with pre-equilibrated Glutathione Sepharose 4B beads (Amersham) at 4° C. for 2 h. The beads were washed with PBS buffer for 3 times. The GST-HDAC1 protein or GST-HDAC8 protein was eluted by elution buffer containing 50 mM Tris, pH8.0, 150 mM NaCl, 1% Triton X-100 and 10 mM or 20 mM reduced Glutathione. The purified GST-HDAC1 protein or purified GST-HDAC8 protein was dialyzed with HDAC storage buffer containing 10 mM Tris, pH7.5, 100 mM NaCl and 3 mM MgCl2. 20% Glycerol was added to purified GST-HDAC1 protein or purified GST-HDAC8 before storage at −80° C.
The assay has been carried out in 96 well format and the BIOMOL fluorescent-based HDAC activity assay has been applied. […] Flur de lys Developer was added and the reaction was incubated for 10 min. Briefly, deacetylation of the substrate sensitizes it to the developer, which then generates a fluorophore. The fluorophore is excited with 360 nm light and the emitted light (460 nm) is detected on a fluorometric plate reader (Tecan Ultra Microplate detection system, Tecan Group Ltd.).
(§2) The analytical software, Prism 3.0® (GraphPad Software Inc) has been used to generate IC50 from a series of data.

[2] = molecular target: T2, HDAC1 enzyme (recombinant GST-HDAC1) (Homo sapiens, UniProt Q13547); assay: In vitro HDAC assay for determination of IC50 values (BIOMOL fluorescent-based), HDAC1; type: biochemical; settings: 600 nM HDAC1 enzyme, 500 μM Flur de lys generic substrate, 2 h room temperature
T2 construct: Amplification of human HDAC1 and HDAC8 coding region from this cDNA library; made in house; host or cells: SF9 insect cells (baculovirus, pDEST20 vector)
T2 sequence (Q13547 whole entry): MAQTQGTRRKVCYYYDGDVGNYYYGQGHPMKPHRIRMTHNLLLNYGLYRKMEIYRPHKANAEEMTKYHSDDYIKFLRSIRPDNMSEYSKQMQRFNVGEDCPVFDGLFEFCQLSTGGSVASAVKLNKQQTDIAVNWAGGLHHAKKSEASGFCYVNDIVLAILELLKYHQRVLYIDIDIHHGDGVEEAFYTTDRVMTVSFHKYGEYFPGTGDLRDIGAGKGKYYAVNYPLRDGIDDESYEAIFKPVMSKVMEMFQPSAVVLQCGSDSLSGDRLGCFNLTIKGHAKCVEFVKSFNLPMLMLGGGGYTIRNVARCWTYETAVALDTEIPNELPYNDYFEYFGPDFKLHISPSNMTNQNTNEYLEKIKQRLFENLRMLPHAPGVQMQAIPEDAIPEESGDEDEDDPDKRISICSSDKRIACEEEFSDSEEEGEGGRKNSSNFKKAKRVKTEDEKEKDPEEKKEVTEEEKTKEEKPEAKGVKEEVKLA
Description: Human cDNA library was prepared using cultured SW620 cells. Amplification of human HDAC1 and HDAC8 coding region from this cDNA library was cloned separately into the baculovirus expression pDEST20 vector and pFASTBAC vector respectively (GATEWAY Cloning Technology, Invitrogen Pte Ltd). The pDEST20-HDAC1 and pFASTBAC-HTGST-HDAC8 constructs were confirmed by DNA sequencing. Recombinant baculovirus was prepared using the Bac-To-Bac method following the manufacturer's instruction (Invitrogen Pte Ltd). Baculovirus titer was determined by plaque assay to be about 10^8 PFU/ml.
as §1
The assay has been carried out in 96 well format and the BIOMOL fluorescent-based HDAC activity assay has been applied. The reaction composed of assay buffer, containing 25 mM Tris pH 7.5, 137 mM NaCl, 2.7 mM KCl, 1 mM MgCl2, 1 mg/ml BSA, tested compounds, 500 nM HDAC8 enzyme or 600 nM HDAC1 enzyme, 200 μM Flur de lys p53 peptide substrate for HDAC8 enzyme or 500 μM Flur de lys generic substrate for HDAC1 enzyme and subsequently was incubated at room temperature for 2 h. Flur de lys Developer was added and the reaction was incubated for 10 min. Briefly, deacetylation of the substrate sensitizes it to the developer, which then generates a fluorophore. The fluorophore is excited with 360 nm light and the emitted light (460 nm) is detected on a fluorometric plate reader (Tecan Ultra Microplate detection system, Tecan Group Ltd.).
as §2

[3] = test system: acetylated histone H3 in Colo205 cells; assay: Histone acetylation assay (western blot), histone H3; type: cell-based, human; parameters: key: “Active” means accumulation of acetylated histone was observed when compared with control (without compound); settings: Colo205 cells, 0.1, 1, 5 and 10 μM, 24 h
Description: (§3) A hallmark of histone deacetylase (HDAC) inhibition is the increase in the acetylation level of histones. Histone acetylation, including H3, H4, H2A and H2B can be detected by immuno-blotting (western-blot). Colo205 cells, approximately 1.5×10^6 cells/10 cm dish, were seeded in the previously described medium, cultivated for 24 h and subsequently treated with HDAC inhibitory agents at 0.1, 1, 5 and 10 μM final concentration. After 24 h, cells were harvested and lysed according to the instruction from Sigma Mammalian Cell Lysis Kit. The protein concentration was quantified using BCA method (Sigma Pte Ltd). The protein lysate was separated using 4-12% bis-tris SDS-PAGE gel (Invitrogen Pte Ltd) and was transferred onto PVDF membrane (BioRad Pte Ltd). The membrane was probed separately using primary antibody specific for acetylated H3, acetylated H4 or acetylated H2A (Upstate Pte Ltd). The detection antibody, goat anti rabbit antibody conjugated with Horse radish peroxidase (HRP) was used according to the manufacturer instruction (Pierce Pte Ltd). After removing the detection antibody from the membrane, an enhanced chemiluminescent substrate for detection of HRP (Pierce Pte Ltd) was added onto the membrane. After removing the substrate, the membrane was exposed to an X-ray film (Kodak) for 1 sec-20 mins. The X-ray film was developed using the X-ray film processor. The density of each band observed on the developed film could be analysed using UVP Bioimaging software (UVP, Inc, Upland, Calif.). The values were then normalized against the density of actin in the corresponding samples to obtain the expression of the protein.

[4] = test system: Colo205 human colon cancer cell line; assay: Cell-based proliferation assay for determination of GI50 values, Colo205; settings: COLO 205, Colo205 cells, 96 h treatment, cyquant assay, read-out: Colo 205 Gl50
Description: (§4) Human colon cancer cell lines (Colo205) and human breast cancer cell lines (MDA-MB435 and MDA-MB231) were obtained from ATCC. Colo205 cells were cultivated in RPMI 1640 containing 2 mM L-Glutamine, 5% FBS, 1.0 mM Na Pyruvate. MDA-MB231 cells were cultivated in RPMI 1640 containing 2 mM L-glutamine, 5% FBS. MDA-MB435 cells were cultivated in DMEM containing 2 mM L-Glutamine, 5% FBS. Colo205 cells were seeded in 96-wells plate at 5000 cells per well respectively. MDA-MB435 and MDA-MB231 cells were seeded in 96-wells plate at 6000 cells per well. The plates were incubated at 37° C., 5% CO2, for 24 h. Cells were treated with compounds at various concentrations for 96 h. Cell growth was then monitored using cyquant cell proliferation assay (Invitrogen Pte Ltd). Dose response curves were plotted to determine GI50 values for the compounds using XL-fit (ID Business Solution, Emeryville, Calif.).

[5] = test system: acetylated histone H4 in Colo205 cells; assay: Histone acetylation assay (western blot), histone H4; type: cell-based, human; parameters: key: “Active” means accumulation of acetylated histone was observed when compared with control (without compound); settings: Colo205 cells, 0.1, 1, 5 and 10 μM, 24 h
Description: as §3

[6] = test system: MDA-MB231 human breast cancer cell line; assay: Cell-based proliferation assay for determination of GI50 values, MDA-MB231; settings: MDA-MB231 cells, 96 h treatment, cyquant assay
Description: as §4

[7] = test system: MDA-MB435 human breast cancer cell line; assay: Cell-based proliferation assay for determination of GI50 values, MDA-MB435; settings: MDA-MB435 cells, 96 h treatment, cyquant assay
Description: as §4

[8] = test system: acetylated histone H2B in Colo205 cells; assay: Histone acetylation assay (western blot), histone H2B; type: cell-based, human; parameters: key: “Active” means accumulation of acetylated histone was observed when compared with control (without compound); settings: Colo205 cells, 0.1, 1, 5 and 10 μM, 24 h
Description: as §3, with “After removing the substrate, the membrane was exposed to an X-ray film (Kodak) for 1 sec-20 mins. The X-ray film was developed using the X-ray film processor.” left out, “The values were then normalized against the density of actin in the corresponding samples to obtain the expression of the protein.” left out

[9] = test system: acetylated histone H2A in Colo205 cells; assay: Histone acetylation assay (western blot), histone H2A; type: cell-based, human; parameters: key: “Active” means accumulation of acetylated histone was observed when compared with control (without compound); settings: Colo205 cells, 0.1, 1, 5 and 10 μM, 24 h
Description: as §3, with “After removing the substrate, the membrane was exposed to an X-ray film (Kodak) for 1 sec-20 mins. The X-ray film was developed using the X-ray film processor.” left out, “The values were then normalized against the density of actin in the corresponding samples to obtain the expression of the protein.” left out

| SMILES | pIC50 [1] | pIC50 [2] | GI50 [4] [nM] | Histone 3 acetylation [3] | Histone 4 acetylation [5] | MDA-MB231 Gl50 [6] [µM] | MDA-MB435 Gl50 [7] [µM] | Histone 2B acetylation [8] | Hisotne 2A acetylation [9] |
| --- | --- | --- | --- | --- | --- | --- | --- | --- | --- |
| Cc1ccc(S(=O)(=O)NC(=O)NCCCCCC(=O)NO)cc1 [Example 1, 6-[3-(toluene-4-sulfonyl)ureido]-hexanoic acid hydroxyamide] | 6.10 | < 4.00 |  |  |  |  |  |  |  |
| O=C(CCCCCNC(=O)NC(=O)c1ccccc1)NO [Example 10, 6-(3-Benzoyl-ureido)-hexanoic acid hydroxyamide] | 5.97 | 7.25 | 1890 | Active | Active | 1.03 | 1.79 | Active | Active |
| O=C(CCCCCCCNC(=O)NC(=O)c1ccccc1)NO [Example 12, 8-(3-Benzoyl-ureido)-octanoic acid hydroxyamide] | 6.40 | 7.01 | 8030 |  |  |  |  |  |  |
| O=C(CCCCCCNC(=O)NC(=O)c1ccccc1)NO [Example 13, 7-(3-Benzoyl-ureido)-heptanoic acid hydroxyamide] | 6.57 | 6.82 | 2680 | Active |  |  |  |  |  |
| O=C(CCCCCNC(=S)NC(=O)c1ccccc1)NO [Example 18, 6-(3-Benzoyl-thioureido)-hexanoic acid hydroxyamide] | 6.28 | 7.57 | 2670 | Active |  |  |  |  |  |
| O=C(/C=C/c1ccc(CN(CCc2ccccc2)C(=O)NC(=O)c2ccccc2)cc1)NO [Example 23, 3-[4-(3-Benzoyl-1-phenethyl-ureidomethyl)-phenyl]-N-hydroxy-acrylamide] | 6.70 | 7.92 | 150 | Active |  | 0.26 |  |  |  |
| O=C(/C=C/c1ccc(CN(CCc2ccc(Br)cc2)C(=O)NC(=O)c2ccccc2)cc1)NO [Example 25, 3-(4-{3-Benzoyl-1-[2-(4-bromo-phenyl)-ethyl]-ureidomethyl}-phenyl)-N-hydroxy-acrylamide] |  |  | 160 |  |  |  |  |  |  |
| O=C(NO)c1ccc(CN2CCN(C(=O)NC(=O)c3ccccc3)CC2)cc1 [Example 30, 4-(4-Benzoylaminocarbonyl-piperazin-1-ylmethyl)-N-hydroxy-benzamide] | 6.34 | 5.54 |  |  |  |  |  |  |  |
| O=C(/C=C/c1ccc(CN(CCN2CCCC2)C(=O)NC(=O)c2ccccc2)cc1)NO [Example 47, 3-{4-[3-Benzoyl-1-(2-pyrrolidin-1-yl-ethyl)-ureidomethyl]-phenyl}-N-hydroxy-acrylamide] | 6.60 | 7.62 |  |  |  |  |  |  |  |

Now from value to molecule, other results behind:

| pIC50 [1] | pIC50 [2] | GI50 [4] [nM] | SMILES | Histone 3 acetylation [3] | Histone 4 acetylation [5] | MDA-MB231 Gl50 [6] [µM] | MDA-MB435 Gl50 [7] [µM] | Histone 2B acetylation [8] | Hisotne 2A acetylation [9] |
| --- | --- | --- | --- | --- | --- | --- | --- | --- | --- |
| 7.40 | 5.58 |  | Cc1ccc(S(=O)(=O)NC(=O)Nc2ccc(/C=C/C(=O)NO)cc2)cc1 [Example 2] |  |  |  |  |  |  |
| 7.31 | 5.53 |  | Cc1ccc(S(=O)(=O)NC(=O)NCc2ccc(C(=O)NO)cc2)cc1 [Example 4] |  |  |  |  |  |  |
| 6.85 | < 4.00 |  | Cc1ccc(S(=O)(=O)NC(=O)Nc2ccc(CC(=O)NO)cc2)cc1 [Example 5, N-Hydroxy-2-{4-[3-(toluene-4-sulfonyl)ureido]-phenyl}acetamide] |  |  |  |  |  |  |
| 7.39 | 6.89 | 1910 | O=C(NCc1ccc(C(=O)NO)cc1)NC(=O)c1ccccc1 [Example 6, 4-(3-Benzoyl-ureidomethyl)-N-hydroxy-benzamide] | Active | Active | 1.92 | 1.24 |  |  |
| 6.82 | < 4.00 |  | O=C(Cc1cccc(NC(=O)NC(=O)c2ccccc2)c1)NO [Example 7, 2-[3-(3-Benzoyl-ureido)-phenyl]-N-hydroxy-acetamide] |  |  |  |  |  |  |
| 7.14 | < 4.00 |  | O=C(Cc1ccc(NC(=O)NC(=O)c2ccccc2)cc1)NO [Example 8, 2-[4-(3-Benzoyl-ureido)-phenyl]-N-hydroxy-acetamide] |  |  |  |  |  |  |
| 7.29 | 5.95 |  | Cc1ccc(S(=O)(=O)NC(=O)NCCCCCCCC(=O)NO)cc1 [Example 14] |  |  |  |  |  |  |
| 6.64 | 7.32 | 630 | O=C(/C=C/c1ccc(CN(CCN2CCCCC2)C(=O)NC(=O)c2ccccc2)cc1)NO [Example 46, 3-{4-[3-Benzoyl-1-(2-piperidin-1-yl-ethyl)-ureidomethyl]-phenyl}-N-hydroxy-acrylamide] | Active |  |  |  |  |  |
